Source: PMC8041751, “Structural basis for an exceptionally strong preference for asparagine residue at the S2 subsite of Stenotrophomonas maltophilia dipeptidyl peptidase 7” (Scientific Reports, 2021)
Residues, ends and D or L forms follow the SMILES beside them.

Columns and labels:
SmDPP7 = test: Inhibition assay using dipeptide library, Tyr-Tyr-MCA hydrolysis; format: biochemical, Stenotrophomonas maltophilia; conditions: for Ki: Xaa-Tyr as competitive inhibitor, substrate 200 µM Tyr-Tyr-MCA, pH 7.0, 298 K, Ki from IC50 by Cheng-Prusoff
Method: Figure 1 Effect of Xaa-Tyr dipeptides on the hydrolytic activity of SmDPP7 towards synthetic substrate Tyr-Tyr-MCA. Inhibition assay was performed as described in “Materials and methods”. Residual activity was measured under conditions where 200 µM Xaa-Tyr dipeptide and 200 µM Tyr-Tyr-MCA, synthetic substrate were added into the reaction solution. […] The standard deviations were obtained from three independent experiments.
The dipeptide library was purchased from AnaSpec (Fremont, CA, US). Ile-Tyr and Arg-Tyr were synthesized by Eurofins Genomics (Tokyo, Japan). Cys-Tyr and Cys-Asp could not be purchased commercially. Different concentrations (3.13, 6.25, 12.5, 25, 50, 100, and 200 µM) of dipeptides as the inhibitor and 200 µM Tyr-Tyr-MCA (GenScript, NJ, US) as the substrate for DPP7 were added into a reaction buffer consisting of 50 mM sodium phosphate buffer pH 7.0, 5 mM EDTA and 0.005% Tween 20. For DPP11s, different concentrations (1.56, 3.13, 6.25, 12.5, 25, 50, and 100 µM) of dipeptides as the inhibitor and 100 µM Leu-Asp-MCA (Peptide Institute, Osaka, Japan) as the substrate were used. The enzyme reaction was performed at 298 K for 20 min and standard deviations were calculated from three independent experiments. Half-maximal inhibitory concentration (IC50) values were determined by fitting to a sigmoid curve (4-parameter logistic curve) using ImageJ software[35] and inhibition constants (Ki) were calculated using the Cheng-Prusoff Equation[36]. The fluorescence intensity of the released MCA was measured with the same method of determination of kinetics parameters toward dipeptidyl MCA.

wild-type SmDPP7 = test: Isothermal titration calorimetry of dipeptide binding; parameters: species or system Stenotrophomonas maltophilia; conditions: ITC, 50 mM sodium phosphate pH 7.0, 2.5% dimethyl sulfoxide, 25 °C
Method: Figure 6 Thermodynamic parameters of dipeptide binding of SmDPP7. The value of thermodynamic parameters is represented in Table S3. The dissociation constant (Kd) and heats of binding (ΔH) were obtained using MICROCAL PEAQ-ITC Analysis software (Malvern, UK). Gibbs free energy (ΔG) and entropy energy (ΔS) were calculated according to the equation, ΔG = − RT ln Ka = RT ln Kd (Ka = 1/ Kd, association constants). Standard deviations were obtained from three independent experiments.
The bindings were analysed using a MICROCAL PEAQ-ITC microcalorimeter (Malvern, UK). The binding reactions were performed in 50 mM sodium phosphate pH 7.0 and 2.5% dimethyl sulfoxide at 25 °C and were stirred at 750 rpm. A single injection of 0.4 μl and 19 times injections of 2.0 μl of the dipeptide solution were injected into 350 μl of enzyme solution (wild-type SmDPP7). The wild-type SmDPP7 concentration was 25 µM and the concentration of each dipeptide solution was 250 µM in reaction buffer. Each injection was performed for 4 s with an interval of 150 s between injections. The dissociation constant (Kd) and heats of binding (ΔH) were obtained using MICROCAL PEAQ-ITC Analysis software (Malvern, UK). Gibbs free energy (ΔG) values were calculated according to ΔG = − RT ln Ka = RT ln Kd (Ka = 1/ Kd, association constants).

Compound | Effect on hydrolytic activity of SmDPP7 (residual activity) (SmDPP7; 200 µM Xaa-Tyr dipeptide and 200 µM Tyr-Tyr-MCA, Fig. 1) | Ki (SmDPP7) [µM] | Kd (wild-type SmDPP7) [µM]
Tyr-Tyr | markedly inhibited | 7.66 ± 1.27 | 6.17 ± 0.39
CC(C)[C@H](N)C(=O)N[C@@H](Cc1ccc(O)cc1)C(=O)O [Val-Tyr] (H-Val-Tyr-OH) | – | 55.2 ± 0.5 | > 40
